The text below walks through data of patent US6673843B2 (Emory University, priority 1999, dated 2004).

Series [1] deals with bFGF-induced corneal neovascularization. The series can be described thus: Corneal neovascularization, bFGF pellet in mouse cornea. It is filed as in vivo, C57BL6 male mice. The conditions noted are these: for ANTI-ANGIOGENIC EFFECT Vessel Length / ANTI-ANGIOGENIC EFFECT Sector Size: pellet with 80 ng bFGF and 44 μg compound, mouse cornea; for ANTI-ANGIOGENIC EFFECT Sector Size: footnote: units of 1/12 of a circle (clock hours). How it is done:
C57BL6 male mice (5-6 weeks old) were anesthetized with methoxyflurane prior to implantation of pellets and with 0.5% proparacaine. A central, intrastromal linear keratotomy was performed with a surgical blade, and a lamellar micropocket was prepared according to the method of Kenyon, et al. (1996). The pellet was advanced to the end of the pocket. Erythromycin ointment was placed on the operated eye to prevent infection. Eyes were examined by slit lamp on days 3-6 after implantation under general anesthesia. Corneal angiogenesis was assayed through two measurements.
Vessel length is the length of the vessel from the corneal limbus as it grows toward the pellet containing bFGF.
Sector size is a measurement of neovascularized area of the cornea. The cornea is viewed as a circle that can be divided into twelve sectors of 30 degrees span each, analogous to the division of a clock face into twelve hours. Thus, neovascularization of a sector corresponding to one fourth of the cornea would be recorded as a sector size measurement of three. This system of measurement, recording sector sizes as “clock hours”, was established by Kenyon et al., Invest. Ophthalmol. 37:1625-1632 (1996).
Pellets were prepared according to a modification of the method of Kenyon, et al. Invest. Opthalmol. Vis. Sci. 37:1625-1632 (1996). […] Once the mixture was dry, the mesh was manually dissociated to yield 225 pellets. […] The approximate pore size was 0.4×0.4 mm. Both sides of the mesh were covered with a thin layer of hydron.
Neovascularization was assessed by slit lamp at 5 days after implantation, and the corneas were photographed.

The subject of series [2] is quinone reductase [NAD(P)H:(quinone-acceptor) oxidoreductase, EC1.6.99.2] in murine Hepac1c7 cells. The series can be described thus: Phase II enzyme induction (quinone reductase). Conditions: for PHASE II INDUCTION CD (concentration to double the measured specific activity): quinone reductase, murine Hepac1c7 cells. The series is classed as cell-based. From the text:
Several plant-derived compounds with anticancer and chemopreventive activities also show the ability to induce phase II detoxifying enzymes, including quinone reductase.

In series [3] the test system is human umbilical vein endothelial cells (HUVEC). The conditions noted are these: independent of bFGF stimulation; Singh et al. 1996; cited from earlier work.
Another series relates to induced tumors. Conditions: oral administration, skin and colon chemical carcinogens; cited from earlier work.
Series [4] relates to Bovine capillary endothelial cells. In words: Endothelial proliferation assay, primary endothelial cells. It is filed as cell-based. Conditions: 72 hours. The protocol: Bovine capillary endothelial cells were isolated according to the method of Folkman, et al., Proc. Nat. Acad. Sci. U.S.A. 76:5217-5221 (1979), and were plated at a concentration of 10,000 cells/well in gelatinized 24-well dishes. The primary endothelial cells were cultured in Dulbecco's modified Eagle's medium (DMEM) supplemented with 10% bovine serum and grown at 37° C. in 10% CO2. Twenty-four hours after plating, cells were treated with curcumin in the presence or absence of bFGF. After 72 hours of treatment, cells were counted using a Coulter counter. Cell counts for each condition were repeated in triplicate and in the presence or absence of 1 ng/ml bFGF. Endothelial cells were stimulated to proliferate in the presence of 1 ng/ml bFGF.

The test system of a further series is VEGF mRNA. In words: Production of VEGF mRNA in HaCaT keratinocytes (RNAse protection). The series is classed as cell-based, human. The conditions noted are these: TPA 5 ng/ml, three hours, HaCaT cells. The protocol: HaCaT keratinocytes were grown in (DMEM) (JRH) supplemented with 5% FCS (Hyclone, Logan, UT) in 25 cm^2 flasks. […] TPA was added to a final concentration of 5 ng/ml and cells were incubated for three hours at 37° C. and harvested, and their RNA was extracted with guanidinium thiocyanate/phenol.
A plasmid containing the coding region of human vascular endothelial growth factor (VEGF) 121 was obtained from H. Welch (University of Freiburg, Germany), and used to generate P^32-labeled antisense riboprobe as per manufacturers protocols (Ambion, Austin, Tex.). RNAse protection assays were performed according to the method of Hod, Biotechniques 13:852-853 (1992). Protected fragments were separated on gels of 5% acrylamide, 8 M urea, 1× Tris-borate buffer, and quantified with a phosphorimager (Molecular Dynamics, Sunnyvale, Calif.). An 18S riboprobe was included in each sample to normalize for variations in loading and recovery of RNA.
HaCaT cells are derived from spontaneously transformed human keratinocytes.

Series [5] relates to MSI (ATCC CCRL 2279) endothelial cells. In words: Endothelial proliferation assay, SV40 large T antigen immortalized endothelial cells. The series is classed as cell-based, murine. Conditions: 72-hour exposure. The protocol: Similarly, MSI (ATCC CCRL 2279) endothelial cells, which are a SV40 large T antigen immortalized murine endothelial cell line, were also plated at a concentration of 10,000 cells/well in nongelatinized 24-well dishes.

The test system of series [6] is omithine decarboxylase induction and promotion of mouse skin. Conditions: oral administration; Huang et al. 1995; cited from earlier work.
[7] abbreviates: pellet with 80 ng bFGF plus compound.

Entries after “also recorded” stand apart in the source; their conditions may differ.

In the case of `O=C(/C=C/c1ccc(O)cc1)CC(=O)/C=C/c1ccc(O)cc1` [Bisdemethoxycurcumin, bisdemethoxycurcumin], in series [1], the “ANTI-ANGIOGENIC EFFECT Vessel Length” value stood at 0.88 mm and the ANTI-ANGIOGENIC EFFECT Sector Size worked out at 1.7 clock hours. For the same molecule, the “PHASE II INDUCTION CD (concentration to double the measured specific activity)” value (from here on “PHASE II INDUCTION CD”) in series [2] was 11.0 µM.

Regarding `COc1cc(/C=C/C(=O)CC(=O)/C=C/c2ccc(O)c(OC)c2)ccc1O` [Curcumin], in series [1], the “ANTI-ANGIOGENIC EFFECT Vessel Length” value is reported as 0.59 mm and the ANTI-ANGIOGENIC EFFECT Sector Size was determined as 1.17 clock hours. Besides, in series [1] (setting [7]), the “sector size (in words)” value is recorded as “significantly reduced” and the “vessel length (in words)” value is “significantly reduced”. The “in vitro proliferation of HUVEC” value in series [3] is given as “inhibits”. Moreover, the “incidence and size of induced tumors compared with control mice” value in the series with induced tumors was “decreased incidence and size”. Moreover, in series [2], the “PHASE II INDUCTION CD” value was determined as 7.3 µM. For the same molecule, in series [4] (10 μM, presence or absence of 1 ng/ml bFGF), the “cell number (proliferation) after treatment” value is “steep decrease in cell number”. Also, the “cytotoxicity to endothelial cells” value in series [4] (0.5 to 10 μM) is on record as “No evidence of cytotoxicity”. Besides, in the series with VEGF mRNA (10 μM curcumin), the “inhibition of TPA-caused increase in VEGF mRNA” value was “not inhibited; also recorded: lack of inhibition”. Also, the “growth of endothelial cells immortalized by SV40 large T antigen” value in series [5] is “able to inhibit the growth”. In addition, the “inhibition of phorbol ester-stimulated ornithine decarboxylase induction and promotion of DMBA-initiated mouse skin” value in series [6] is given as “able to inhibit”.

With `COc1cc(/C=C/C(O)=C/C(=O)/C=C/c2ccc(O)cc2)ccc1O` [Demethoxycurcumin, demethoxycurcumin], in series [1], the “ANTI-ANGIOGENIC EFFECT Vessel Length” value was determined as 0.26 mm and the ANTI-ANGIOGENIC EFFECT Sector Size worked out at 0.71 clock hours. For the same molecule, the “PHASE II INDUCTION CD” value in series [2] was determined as 9.0 µM.

Turning to `CCCCCCCCCCCCCC(=O)O[C@@H]1[C@@H](C)[C@@]2(O)[C@@H](C=C(CO)C[C@]3(O)C(=O)C(C)=C[C@@H]23)[C@@H]2C(C)(C)[C@]12OC(C)=O` [TPA, 12-O-tetradecanoylphorbol-13-acetate, reference compound], in the series on VEGF mRNA, the “increase in VEGF mRNA” value was determined as 2.5 fold.

For `O=C1C(c2ccccc2)=C(c2ccccc2)C(c2ccccc2)=C1c1ccccc1` [TPCPD, tetraphenylcyclopentadienone, reference compound], in series [1], the “ANTI-ANGIOGENIC EFFECT Vessel Length” value was found to be 1.16 mm and the ANTI-ANGIOGENIC EFFECT Sector Size turned out to be 3.72 clock hours. For the same molecule, the “bFGF-induced corneal neovascularization (in words)” value in series [1] (setting [7]) was “no anti-angiogenic activity; also recorded: no difference in neovascularization”. Further, the “bFGF-induced corneal neovascularization (in words)” value in series [1] (pellet with 80 ng bFGF plus compound, listed as tetraphenylcyclopentadienone (TPCPD)) is “no effect”. In addition, the “PHASE II INDUCTION CD” value in series [2] amounted to 4.8 µM.

For `COc1cc(CCC(=O)CC(=O)CCc2ccc(O)c(OC)c2)ccc1O` [Tetrahydrocurcumin, tetrahydrocurcumin], in series [1], the “ANTI-ANGIOGENIC EFFECT Vessel Length” value was 0.74 mm and the ANTI-ANGIOGENIC EFFECT Sector Size turned out to be 2.43 clock hours. Moreover, the “induction of quinone reductase activity” value in series [2] (highest concentration tested, 25 μM) is 1.6 fold. Further, the “PHASE II INDUCTION CD” value in series [2] was above 25 µM.
